From PMC5933747 (PLoS ONE, 2018)
Where two headings read alike, the source gives them in different places.

Tests used:
human NaV1.4 [1] = biological target: T1, human NaV1.4 (Homo sapiens, UniProt P35499); assay: PatchXpress (PX) automated electrophysiology, human NaV1.4; format: cell-based; conditions: for IC50: PX platform, at least ten cells, two to three data points per concentration
Procedure: Human NaV (hNaV) stably transfected cell lines in HEK293 or CHO backgrounds and cell culture methods were as previously described. hNaV1.1-hNaV1.7 cells were obtained from Eurofins Pharma Discovery Services (St. Charles, MO), and hNaV1.8 cells were generated in house. Whole cell patch clamp, PatchXpress, and IWQ electrophysiology voltage protocols as well as DRG neuron isolation were carried out as previously described. NaV1.7-NaV1.5 chimeras were generated and evaluated in BacMam transduced U2-OS cells on the IWQ platform as previously described.

human NaV1.5 [2] = biological target: T2, human NaV1.5 (Homo sapiens, UniProt Q14524); assay: IonWorks Quattro (IWQ) electrophysiology, human NaV1.5; format: cell-based
T2 sequence (Q14524 whole entry): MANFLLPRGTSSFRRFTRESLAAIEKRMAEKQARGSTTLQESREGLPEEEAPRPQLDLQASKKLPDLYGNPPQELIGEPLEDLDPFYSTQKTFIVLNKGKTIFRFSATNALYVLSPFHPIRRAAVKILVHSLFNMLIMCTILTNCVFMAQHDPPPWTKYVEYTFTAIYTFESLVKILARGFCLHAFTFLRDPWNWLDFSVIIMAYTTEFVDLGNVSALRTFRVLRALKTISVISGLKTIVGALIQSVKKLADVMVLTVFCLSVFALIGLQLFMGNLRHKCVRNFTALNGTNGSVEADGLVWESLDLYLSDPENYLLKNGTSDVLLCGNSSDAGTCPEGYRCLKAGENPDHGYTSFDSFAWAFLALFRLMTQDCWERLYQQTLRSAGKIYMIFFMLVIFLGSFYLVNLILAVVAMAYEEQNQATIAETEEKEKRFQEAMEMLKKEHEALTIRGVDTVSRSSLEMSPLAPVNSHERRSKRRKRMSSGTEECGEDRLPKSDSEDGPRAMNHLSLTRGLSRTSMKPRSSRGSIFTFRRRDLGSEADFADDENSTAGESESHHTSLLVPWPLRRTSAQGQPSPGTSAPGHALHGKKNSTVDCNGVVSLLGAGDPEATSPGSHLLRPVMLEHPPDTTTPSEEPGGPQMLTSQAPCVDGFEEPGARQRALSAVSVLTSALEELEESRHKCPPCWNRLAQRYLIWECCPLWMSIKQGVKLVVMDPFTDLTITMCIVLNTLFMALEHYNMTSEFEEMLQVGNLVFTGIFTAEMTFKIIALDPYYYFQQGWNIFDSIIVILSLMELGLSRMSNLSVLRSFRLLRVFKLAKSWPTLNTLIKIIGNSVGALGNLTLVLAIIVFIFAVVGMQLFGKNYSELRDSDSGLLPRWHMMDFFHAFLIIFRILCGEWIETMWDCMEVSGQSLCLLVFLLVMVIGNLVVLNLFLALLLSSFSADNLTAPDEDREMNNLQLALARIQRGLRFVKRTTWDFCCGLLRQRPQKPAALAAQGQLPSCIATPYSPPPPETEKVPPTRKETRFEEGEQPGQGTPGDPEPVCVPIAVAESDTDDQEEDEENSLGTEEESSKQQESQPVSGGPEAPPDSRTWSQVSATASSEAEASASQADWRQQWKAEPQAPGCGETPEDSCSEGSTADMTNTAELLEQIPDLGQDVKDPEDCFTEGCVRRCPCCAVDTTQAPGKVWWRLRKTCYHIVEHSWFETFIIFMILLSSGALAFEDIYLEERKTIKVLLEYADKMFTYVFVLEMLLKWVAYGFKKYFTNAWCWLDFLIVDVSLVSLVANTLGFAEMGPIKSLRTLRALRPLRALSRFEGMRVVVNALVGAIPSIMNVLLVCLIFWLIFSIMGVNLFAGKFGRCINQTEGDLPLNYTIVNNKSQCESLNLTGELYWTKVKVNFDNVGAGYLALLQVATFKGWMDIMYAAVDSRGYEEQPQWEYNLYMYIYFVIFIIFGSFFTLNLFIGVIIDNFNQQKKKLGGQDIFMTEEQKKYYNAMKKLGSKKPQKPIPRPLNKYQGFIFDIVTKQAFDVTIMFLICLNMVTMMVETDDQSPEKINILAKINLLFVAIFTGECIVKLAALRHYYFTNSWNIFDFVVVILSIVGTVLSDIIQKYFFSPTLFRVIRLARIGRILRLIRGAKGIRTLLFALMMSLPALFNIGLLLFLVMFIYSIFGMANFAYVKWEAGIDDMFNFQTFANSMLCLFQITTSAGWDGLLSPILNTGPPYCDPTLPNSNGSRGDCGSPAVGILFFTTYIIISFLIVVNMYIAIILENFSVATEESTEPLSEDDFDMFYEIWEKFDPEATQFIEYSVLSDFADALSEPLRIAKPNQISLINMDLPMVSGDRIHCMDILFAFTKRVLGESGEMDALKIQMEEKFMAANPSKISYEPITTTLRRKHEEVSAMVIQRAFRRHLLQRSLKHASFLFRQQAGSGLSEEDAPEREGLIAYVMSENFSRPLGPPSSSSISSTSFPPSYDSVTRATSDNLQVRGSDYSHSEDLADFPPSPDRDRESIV

human NaV1.7 [3] = biological target: T3, human NaV1.7 (Homo sapiens, UniProt Q15858)
human NaV1.7 [4] = biological target: T3, human NaV1.7; remark: listed apart in the source
human NaV1.5 [5] = biological target: T2, human NaV1.5; assay: PatchXpress (PX) automated electrophysiology, human NaV1.5; format: cell-based; conditions: PX platform; at least ten cells, two to three data points per concentration
human NaV1.7 [6] = biological target: T3, human NaV1.7; remark: listed apart in the source
human NaV1.7 [7] = biological target: T3, human NaV1.7; remark: listed apart in the source
wild-type NaV1.5 = wild-type NaV1.5 (Homo sapiens, UniProt Q14524)
human NaV1.7 [8] = biological target: T3, human NaV1.7; assay: 125I-ProTx-II radioligand binding to live HEK293 cells stably expressing human NaV1.7; conditions: 0.5 nM 125I-ProTx-II, 3 h, increasing concentrations of cold peptide
human NaV1.4 [9] = biological target: T1, human NaV1.4; assay: IonWorks Quattro (IWQ) electrophysiology, human NaV1.4; format: cell-based
human NaV1.7 [10] = biological target: T3, human NaV1.7; assay: IonWorks Quattro (IWQ) electrophysiology, human NaV1.7; format: cell-based

T1 sequence (P35499 whole entry): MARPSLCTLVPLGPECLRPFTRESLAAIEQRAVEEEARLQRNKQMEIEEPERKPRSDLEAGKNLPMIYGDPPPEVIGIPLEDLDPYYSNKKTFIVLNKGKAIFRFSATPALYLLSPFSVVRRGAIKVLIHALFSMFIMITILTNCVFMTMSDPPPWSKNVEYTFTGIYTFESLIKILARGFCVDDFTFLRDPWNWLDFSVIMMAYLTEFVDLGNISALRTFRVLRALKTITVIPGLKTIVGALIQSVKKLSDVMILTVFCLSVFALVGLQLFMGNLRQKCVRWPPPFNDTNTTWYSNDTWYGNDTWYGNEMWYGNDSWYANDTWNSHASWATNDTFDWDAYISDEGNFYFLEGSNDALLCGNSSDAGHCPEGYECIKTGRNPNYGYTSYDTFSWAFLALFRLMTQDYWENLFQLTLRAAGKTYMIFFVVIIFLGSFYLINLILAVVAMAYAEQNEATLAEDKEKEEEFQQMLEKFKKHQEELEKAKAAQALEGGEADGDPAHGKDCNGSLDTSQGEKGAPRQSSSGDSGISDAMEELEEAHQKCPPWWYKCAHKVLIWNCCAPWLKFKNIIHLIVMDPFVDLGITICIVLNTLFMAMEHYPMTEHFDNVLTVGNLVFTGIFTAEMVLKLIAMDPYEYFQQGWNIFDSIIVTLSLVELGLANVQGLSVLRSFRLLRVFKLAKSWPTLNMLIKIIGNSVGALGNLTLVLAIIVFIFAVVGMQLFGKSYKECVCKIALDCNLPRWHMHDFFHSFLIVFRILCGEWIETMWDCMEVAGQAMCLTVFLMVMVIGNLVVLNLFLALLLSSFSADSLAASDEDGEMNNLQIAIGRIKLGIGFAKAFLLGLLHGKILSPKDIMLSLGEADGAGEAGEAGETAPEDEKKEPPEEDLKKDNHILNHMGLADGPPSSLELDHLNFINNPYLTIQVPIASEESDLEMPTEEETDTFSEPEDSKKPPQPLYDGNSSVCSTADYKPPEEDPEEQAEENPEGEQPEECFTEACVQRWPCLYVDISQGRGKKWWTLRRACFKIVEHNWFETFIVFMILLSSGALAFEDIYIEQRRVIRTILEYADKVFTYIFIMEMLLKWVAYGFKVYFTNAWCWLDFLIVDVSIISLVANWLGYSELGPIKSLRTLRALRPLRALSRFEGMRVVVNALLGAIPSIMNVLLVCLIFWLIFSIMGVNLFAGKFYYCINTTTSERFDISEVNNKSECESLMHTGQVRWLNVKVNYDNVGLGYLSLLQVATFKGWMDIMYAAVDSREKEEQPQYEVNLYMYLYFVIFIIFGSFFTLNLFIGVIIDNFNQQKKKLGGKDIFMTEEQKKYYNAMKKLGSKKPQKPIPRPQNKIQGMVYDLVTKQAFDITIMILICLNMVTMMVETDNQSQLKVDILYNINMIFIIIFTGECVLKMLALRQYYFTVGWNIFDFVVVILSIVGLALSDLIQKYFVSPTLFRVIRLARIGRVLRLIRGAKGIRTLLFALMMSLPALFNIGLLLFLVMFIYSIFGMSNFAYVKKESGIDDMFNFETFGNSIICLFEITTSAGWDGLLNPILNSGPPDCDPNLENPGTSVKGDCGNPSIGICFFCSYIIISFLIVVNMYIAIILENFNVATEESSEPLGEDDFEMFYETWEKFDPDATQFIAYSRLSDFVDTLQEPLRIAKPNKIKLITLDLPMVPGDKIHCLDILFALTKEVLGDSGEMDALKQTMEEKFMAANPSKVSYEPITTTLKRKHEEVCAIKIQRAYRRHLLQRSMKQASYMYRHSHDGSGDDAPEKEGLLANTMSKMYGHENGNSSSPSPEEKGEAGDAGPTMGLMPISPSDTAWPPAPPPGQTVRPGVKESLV
Sequence of JzTx-V(1–29) (Q2PAY4 54-83): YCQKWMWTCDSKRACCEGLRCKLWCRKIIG

CC[C@H](C)[C@H](NC(=O)[C@H](CCC(=O)O)NC(=O)[C@H](CCCCN)NC(=O)[C@H](CCCNC(=N)N)NC(=O)[C@@H]1CSSC[C@@H]2NC(=O)[C@H](C)NC(=O)[C@H](CCCNC(=N)N)NC(=O)[C@H](CCCCN)NC(=O)[C@H](CO)NC(=O)[C@H](CC(=O)O)NC(=O)[C@@H]3CSSC[C@H](NC(=O)[C@H](CCCNC(=N)N)NC(=O)[C@H](CC(C)C)NC(=O)CNC(=O)[C@H](CCC(=O)O)NC(=O)[C@H](CSSC[C@H](NC(=O)[C@@H](N)Cc4ccc(O)cc4)C(=O)N[C@@H](CCC(N)=O)C(=O)N[C@@H](CCCCN)C(=O)N[C@@H](Cc4c[nH]c5ccccc45)C(=O)N[C@@H](CCSC)C(=O)N[C@@H](Cc4c[nH]c5ccccc45)C(=O)N[C@@H]([C@@H](C)O)C(=O)N3)NC2=O)C(=O)N[C@@H](CCCCN)C(=O)N[C@@H](CC(C)C)C(=O)N[C@@H](Cc2c[nH]c3ccccc23)C(=O)N1)C(N)=O [Peptide 1, [Glu28]JzTx-V(1–29)]
selectivity for NaV1.7 over NaV1.4 (human NaV1.4 [1]; PX platform IC50 ratio): 500 fold
IC50 (human NaV1.5 [2]; human, read-out: Glu mutant IWQ IC50 NaV1.5): > 5000 nM

[Nle6;Pra14;Glu28]JzTx-V(1–29) (peptide)
NaV1.7 IC50 (nM), block of human NaV1.7 current, PatchXpress (PX) platform (human NaV1.7 [3]): 0.5 nM

JzTx-V(1–29) (from UniProt Q2PAY4 54-83) (peptide)
potency (IC50) of inhibition of NaV1.7 by manual patch clamp, voltage protocol with 20% of channels inactivated (human NaV1.7 [4]): 0.15 nM
NaV1.7 IC50 (nM), block of human NaV1.7 current in HEK293 cells, PatchXpress (PX) platform (human NaV1.7 [3]): 0.6 nM

C#CC[C@@H]1NC(=O)[C@H](CC(=O)O)NC(=O)[C@@H]2CSSC[C@@H]3NC(=O)[C@H](CCCNC(=N)N)NC(=O)[C@H](CC(C)C)NC(=O)CNC(=O)[C@H](CCC(=O)O)NC(=O)[C@H](CSSC[C@H](NC(=O)[C@@H](N)Cc4ccc(O)cc4)C(=O)N[C@@H](CCC(N)=O)C(=O)N[C@@H](CCCCN)C(=O)N[C@@H](Cc4c[nH]c5ccccc45)C(=O)N[C@@H](CCCC)C(=O)N[C@@H](Cc4c[nH]c5ccccc45)C(=O)N[C@@H]([C@@H](C)O)C(=O)N2)NC(=O)[C@H](CSSC[C@@H](C(=O)N[C@@H](CCCNC(=N)N)C(=O)N[C@@H](CCCCN)C(=O)N[C@@H](CCC(=O)O)C(=O)N[C@H](C(N)=O)[C@@H](C)CC)NC(=O)[C@H](Cc2c[nH]c4ccccc24)NC(=O)[C@H](CC(C)C)NC(=O)[C@H](CCCCN)NC3=O)NC(=O)[C@H](C)NC(=O)[C@H](CCCNC(=N)N)NC(=O)[C@H](CCCCN)NC1=O [Peptide 5, [Nle6;Pra11;Glu28]JzTx-V(1–29)]
IC50 (human NaV1.5 [5]): 6000 nM
IC50 (human NaV1.4 [1]): 194 nM

C#CC[C@H](N)C(=O)N[C@H]1CSSC[C@@H]2NC(=O)[C@@H]3CSSC[C@@H](C(=O)N[C@@H](CCCNC(=N)N)C(=O)N[C@@H](CCCCN)C(=O)N[C@@H](CCC(=O)O)C(=O)N[C@H](C(N)=O)[C@@H](C)CC)NC(=O)[C@H](Cc4c[nH]c5ccccc45)NC(=O)[C@H](CC(C)C)NC(=O)[C@H](CCCCN)NC(=O)[C@H](CSSC[C@H](NC(=O)[C@H]([C@@H](C)O)NC(=O)[C@H](Cc4c[nH]c5ccccc45)NC(=O)[C@H](CCCC)NC(=O)[C@H](Cc4c[nH]c5ccccc45)NC(=O)[C@H](CCCCN)NC(=O)[C@H](CCC(N)=O)NC1=O)C(=O)N[C@@H](CC(=O)O)C(=O)N[C@@H](CO)C(=O)N[C@@H](CCCCN)C(=O)N[C@@H](CCCNC(=N)N)C(=O)N[C@@H](C)C(=O)N3)NC(=O)[C@H](CCCNC(=N)N)NC(=O)[C@H](CC(C)C)NC(=O)CNC(=O)[C@H](CCC(=O)O)NC2=O [Peptide 4, [Pra1;Nle6;Glu28]JzTx-V(1–29)]
IC50 (human NaV1.5 [5]): 4600 nM
IC50 (human NaV1.4 [1]): 89 nM

[Nle6;Pra17;Glu28]JzTx-V(1–29) (peptide)
NaV1.7 IC50 (nM), block of human NaV1.7 current, PatchXpress (PX) platform (human NaV1.7 [3]): 3.6 nM

CyA-[Nle6;Pra17;Glu28]JzTx-V(1–29) (peptide)
NaV1.7 IC50 (nM), block of human NaV1.7 current, PatchXpress (PX) platform (human NaV1.7 [3]): 0.8 nM

[Pra1;Nle6;Glu28]JzTx-V(1–29) (peptide)
NaV1.7 IC50 (nM), block of human NaV1.7 current, PatchXpress (PX) platform (human NaV1.7 [3]): 0.3 nM

C#CC[C@@H]1NC(=O)[C@H](CCCNC(=N)N)NC(=O)[C@H](CCCCN)NC(=O)[C@H](CO)NC(=O)[C@H](CC(=O)O)NC(=O)[C@@H]2CSSC[C@@H]3NC(=O)[C@H](CCCNC(=N)N)NC(=O)[C@H](CC(C)C)NC(=O)CNC(=O)[C@H](CCC(=O)O)NC(=O)[C@H](CSSC[C@H](NC(=O)[C@@H](N)Cc4ccc(O)cc4)C(=O)N[C@@H](CCC(N)=O)C(=O)N[C@@H](CCCCN)C(=O)N[C@@H](Cc4c[nH]c5ccccc45)C(=O)N[C@@H](CCCC)C(=O)N[C@@H](Cc4c[nH]c5ccccc45)C(=O)N[C@@H]([C@@H](C)O)C(=O)N2)NC(=O)[C@H](CSSC[C@@H](C(=O)N[C@@H](CCCNC(=N)N)C(=O)N[C@@H](CCCCN)C(=O)N[C@@H](CCC(=O)O)C(=O)N[C@H](C(N)=O)[C@@H](C)CC)NC(=O)[C@H](Cc2c[nH]c4ccccc24)NC(=O)[C@H](CC(C)C)NC(=O)[C@H](CCCCN)NC3=O)NC1=O [Peptide 6, [Nle6;Pra14;Glu28]JzTx-V(1–29)]
IC50 (human NaV1.5 [5]): 3500 nM
IC50 (human NaV1.4 [1]): 110 nM

[Glu28]JzTx-V(1–29) (peptide)
NaV1.7 IC50 (nM), block of human NaV1.7 current, PatchXpress (PX) platform (human NaV1.7 [3]): 0.6 nM

Pra-[Nle6;Glu28]JzTx-V(1–29) (peptide)
IC50 of block of human NaV1.7, manual patch clamp, voltage protocol with 20% of NaV channels inactivated (human NaV1.7 [6]): 0.58 nM
IC50 of block of wild-type NaV1.7, IWQ platform (chimera panel) (human NaV1.7 [7]): 50 nM
IC50 of block of wild-type NaV1.5, IWQ platform (chimera panel) (wild-type NaV1.5): > 3000 nM
NaV1.7 IC50 (nM), block of human NaV1.7 current, PatchXpress (PX) platform (human NaV1.7 [3]): 0.5 nM

C#CC[C@@H]1NC(=O)[C@@H]2CSSC[C@H](NC(=O)[C@@H](N)Cc3ccc(O)cc3)C(=O)N[C@@H](CCC(N)=O)C(=O)N[C@@H](CCCCN)C(=O)N[C@@H](Cc3c[nH]c4ccccc34)C(=O)N[C@@H](CCCC)C(=O)N[C@@H](Cc3c[nH]c4ccccc34)C(=O)N[C@@H]([C@@H](C)O)C(=O)N[C@H]3CSSC[C@H](NC(=O)[C@H](CCCNC(=N)N)NC(=O)[C@H](CC(C)C)NC(=O)CNC1=O)C(=O)N[C@@H](CCCCN)C(=O)N[C@@H](CC(C)C)C(=O)N[C@@H](Cc1c[nH]c4ccccc14)C(=O)N[C@H](C(=O)N[C@@H](CCCNC(=N)N)C(=O)N[C@@H](CCCCN)C(=O)N[C@@H](CCC(=O)O)C(=O)N[C@H](C(N)=O)[C@@H](C)CC)CSSC[C@H](NC(=O)[C@H](C)NC(=O)[C@H](CCCNC(=N)N)NC(=O)[C@H](CCCCN)NC(=O)[C@H](CO)NC(=O)[C@H](CC(=O)O)NC3=O)C(=O)N2 [Peptide 7, [Nle6;Pra17;Glu28]JzTx-V(1–29)]
IC50 (human NaV1.5 [5]): 3100 nM
IC50 (human NaV1.4 [1]): 130 nM

[Nle6;Pra11;Glu28]JzTx-V(1–29) (peptide)
NaV1.7 IC50 (nM), block of human NaV1.7 current, PatchXpress (PX) platform (human NaV1.7 [3]): 0.5 nM

HwTx-IV (ECLEIFKACNPSNDQCCKSSKLVCSRKTRWCKYQIGK)
competition for 125I-ProTx-II binding (human NaV1.7 [8]): competed

CC[C@H](C)[C@H](NC(=O)[C@@H](NC(=O)[C@H](CCCCN)NC(=O)[C@H](CCCNC(=N)N)NC(=O)[C@@H]1CSSC[C@@H]2NC(=O)[C@H](C)NC(=O)[C@H](CCCNC(=N)N)NC(=O)[C@H](CCCCN)NC(=O)[C@H](CO)NC(=O)[C@H](CC(=O)O)NC(=O)[C@@H]3CSSC[C@H](NC(=O)[C@H](CCCNC(=N)N)NC(=O)[C@H](CC(C)C)NC(=O)CNC(=O)[C@H](CCC(=O)O)NC(=O)[C@H](CSSC[C@H](NC(=O)[C@@H](N)Cc4ccc(O)cc4)C(=O)N[C@@H](CCC(N)=O)C(=O)N[C@@H](CCCCN)C(=O)N[C@@H](Cc4c[nH]c5ccccc45)C(=O)N[C@@H](CCSC)C(=O)N[C@@H](Cc4c[nH]c5ccccc45)C(=O)N[C@@H]([C@@H](C)O)C(=O)N3)NC2=O)C(=O)N[C@@H](CCC(=O)O)C(=O)N[C@@H](CC(C)C)C(=O)N[C@@H](Cc2c[nH]c3ccccc23)C(=O)N1)[C@@H](C)CC)C(N)=O [K22 Glu mutant]
IC50 (human NaV1.4 [9]; read-out: Glu mutant IWQ IC50 NaV1.4): > 10000 nM
IC50 (human NaV1.7 [10]; read-out: Glu mutant IWQ IC50 NaV1.7): 662 nM
IC50 (human NaV1.5 [2]; read-out: Glu mutant IWQ IC50 NaV1.5): > 10000 nM

Pra-[Nle6]JzTx-V(1–29) (peptide)
NaV1.7 IC50 (nM), block of human NaV1.7 current, PatchXpress (PX) platform (human NaV1.7 [3]): 1.2 nM

CC[C@H](C)[C@H](NC(=O)[C@@H](NC(=O)[C@H](CCCCN)NC(=O)[C@H](CCCNC(=N)N)NC(=O)[C@@H]1CSSC[C@@H]2NC(=O)[C@H](C)NC(=O)[C@H](CCCNC(=N)N)NC(=O)[C@H](CCCCN)NC(=O)[C@H](CO)NC(=O)[C@H](CC(=O)O)NC(=O)[C@@H]3CSSC[C@H](NC(=O)[C@H](CCCNC(=N)N)NC(=O)[C@H](C)NC(=O)CNC(=O)[C@H](CCC(=O)O)NC(=O)[C@H](CSSC[C@H](NC(=O)[C@@H](N)Cc4ccc(O)cc4)C(=O)N[C@@H](CCC(N)=O)C(=O)N[C@@H](CCCCN)C(=O)N[C@@H](Cc4c[nH]c5ccccc45)C(=O)N[C@@H](CCSC)C(=O)N[C@@H](Cc4c[nH]c5ccccc45)C(=O)N[C@@H]([C@@H](C)O)C(=O)N3)NC2=O)C(=O)N[C@@H](CCCCN)C(=O)N[C@@H](CC(C)C)C(=O)N[C@@H](Cc2c[nH]c3ccccc23)C(=O)N1)[C@@H](C)CC)C(N)=O [L19 Ala mutant]
IC50 (human NaV1.4 [9]; read-out: Ala mutant IWQ IC50 NaV1.4): > 10000 nM
IC50 (human NaV1.7 [10]; read-out: Ala mutant IWQ IC50 NaV1.7): 2810 nM
IC50 (human NaV1.5 [2]; read-out: Ala mutant IWQ IC50 NaV1.5): > 10000 nM
